Assay results: patent publication US20100217003A1, “1,2,3,4-TETRAHYDROISOQUINOLINE DERIVATIVES HAVING EFFECTS OF PREVENTING AND TREATING DEGENERATIVE AND INFLAMMATORY DISEASES” (priority 2006, published 2010)

Test system: SK-N-BE(2)C cells
Test: Protective effect against neuron death due to substances released from activated microglial cells (LDH)
Assay type: cell-based
Conditions: culture medium from 50 EHMTIQ + LPS-treated BV-2 cells
Method: Measurement of Lactate Dehydrogenase (LDH) Activity
0.26 mM NADH, 2.87 mM sodium pyruvate and 100 mM potassium phosphate buffer (pH 7.4) were added to cell culture medium (50 ? ) to make a total volume of 200 ? , and then cultured at RT. The resultant NAD^+ was measured at 340 nm for 5 minutes at 2-second intervals using a microplate spectrophotometer (SPECTRA MAX 340 pc; Molecular Devices, Menlo Park, Calif., USA).
BV-2 microglial cells were planted in a 24-well Petri dish at a density of 2.5×10^5 cells/ml. After an overnight culture, the cells were treated with […] lipopolysaccharide and EHMTIQ (11a) and then cultured for 12 more hours. At the same time, SK-N-BE(2)C cells were planted in a 24-well Petri dish at 0.5×10^5 cells/ml and cultured for 24 hours. The culture medium for SK-N-BE(2) C cells was removed and the culture medium for BV-2 was added thereto. After 24 hours, the death rate of SK-N-BE(2)C cells was measured using LDH.
The assay was performed to determine whether EHMTIQ (11a) protects a dopaminergic cell from injuries due to inflammatory substances released from an activated microglial cell. SK-N-BE(2)C cells were transferred to a culture medium containing substances released from LPS-stimulated BV-2 cells, and the cell death rate was measured by activity of LDH contained in the culture medium and compared with that in the EHMTIQ (11a)-treated BV-2 culture medium.

**Q.** Which “cell injury rate of SK-N-BE(2)C cells” value does the source give for `CCC(=O)N1CCc2cc(OC)c(O)cc2C1` [EHMTIQ (11a), 2-ethylcarbonyl-7-hydroxy-6-methoxy-1,2,3,4-tetrahydroisoquinoline] here?
**A.** reduced
